Data as given in ChEMBL document CHEMBL1201862, “PubChem BioAssay data set” (2004).
Active and inactive are the calls of the source.

Legend:
[1] = target: Melanin-concentrating hormone receptor 1 (Homo sapiens, UniProt Q99705); test: Fluorescence-based counterscreen for antagonists of the G-protein coupled receptor 7 (GPR7): cell-based high throughput dose response assay to identify antagonists of the melanin-concentrating hormone receptor 1 (MCHR1).; assay type: functional
[2] = target: T1, Alkaline phosphatase, tissue-nonspecific isozyme (Homo sapiens, UniProt P05186)
T1 sequence (P05186 whole entry): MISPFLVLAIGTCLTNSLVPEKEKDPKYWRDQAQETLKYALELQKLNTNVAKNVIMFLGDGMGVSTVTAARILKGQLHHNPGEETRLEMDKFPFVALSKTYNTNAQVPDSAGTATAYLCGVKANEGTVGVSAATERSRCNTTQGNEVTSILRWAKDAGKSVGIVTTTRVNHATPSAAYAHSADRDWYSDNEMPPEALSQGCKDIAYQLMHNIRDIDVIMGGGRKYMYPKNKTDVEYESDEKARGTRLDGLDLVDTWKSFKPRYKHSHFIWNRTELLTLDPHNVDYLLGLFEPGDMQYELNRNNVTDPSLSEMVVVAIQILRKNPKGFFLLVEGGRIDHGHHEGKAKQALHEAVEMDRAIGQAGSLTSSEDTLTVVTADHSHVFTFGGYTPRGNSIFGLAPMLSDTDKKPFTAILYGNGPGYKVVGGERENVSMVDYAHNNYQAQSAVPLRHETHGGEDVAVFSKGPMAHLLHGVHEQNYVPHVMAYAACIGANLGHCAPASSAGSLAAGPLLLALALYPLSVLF

Albumin = Albumin (Bos taurus, UniProt P02769); test: Counterscreen for inhibitors of T-cell receptor (TCR)-CD3 interaction: Fluorescence-based biochemical high throughput dose response assay to identify inhibitors of T-cell receptor (TCR)-CD3 interaction using a TAMRA-labeled BSA probe.; assay type: functional
Chain of Albumin (P02769 whole entry): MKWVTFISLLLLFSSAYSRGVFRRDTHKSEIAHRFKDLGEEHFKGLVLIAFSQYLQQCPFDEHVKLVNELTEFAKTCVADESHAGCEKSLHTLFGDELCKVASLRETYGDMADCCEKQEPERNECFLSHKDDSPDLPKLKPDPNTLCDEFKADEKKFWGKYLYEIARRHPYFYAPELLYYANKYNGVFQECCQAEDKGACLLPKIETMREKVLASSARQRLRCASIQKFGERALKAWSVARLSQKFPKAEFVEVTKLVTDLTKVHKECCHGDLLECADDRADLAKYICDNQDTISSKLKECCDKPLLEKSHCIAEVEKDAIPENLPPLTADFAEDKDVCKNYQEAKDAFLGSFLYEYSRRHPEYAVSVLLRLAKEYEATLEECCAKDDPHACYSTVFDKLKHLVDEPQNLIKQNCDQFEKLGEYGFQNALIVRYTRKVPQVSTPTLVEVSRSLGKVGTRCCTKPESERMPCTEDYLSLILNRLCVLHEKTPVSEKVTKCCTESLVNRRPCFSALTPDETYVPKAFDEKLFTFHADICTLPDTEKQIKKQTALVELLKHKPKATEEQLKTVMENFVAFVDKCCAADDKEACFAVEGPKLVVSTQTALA

[3] = target: Neurotensin receptor type 1 (Homo sapiens, UniProt P30989); assay type: functional;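 further: Image-based confirmatory dose-response assay measuring agonist activity at NTR1; NTR1-expressing U2OS osteosarcoma cells imaged for beta-arrestin GFP spot formation; agonist potency where compounds increase beta-arrestin recruitment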
Chain of Neurotensin receptor type 1 (P30989 whole entry): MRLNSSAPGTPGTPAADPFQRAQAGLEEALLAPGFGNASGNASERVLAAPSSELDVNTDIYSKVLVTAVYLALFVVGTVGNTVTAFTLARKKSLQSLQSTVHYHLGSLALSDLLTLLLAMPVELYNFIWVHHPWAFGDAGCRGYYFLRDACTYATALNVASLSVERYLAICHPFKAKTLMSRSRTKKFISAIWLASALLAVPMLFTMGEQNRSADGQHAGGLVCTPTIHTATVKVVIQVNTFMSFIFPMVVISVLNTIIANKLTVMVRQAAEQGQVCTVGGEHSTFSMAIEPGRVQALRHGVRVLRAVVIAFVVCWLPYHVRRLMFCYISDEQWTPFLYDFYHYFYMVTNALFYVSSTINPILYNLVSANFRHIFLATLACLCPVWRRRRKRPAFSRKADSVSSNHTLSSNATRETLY

[4] = target: T2, Eukaryotic translation initiation factor 2-alpha kinase 3 (Homo sapiens, UniProt Q9NZJ5); test: Counterscreen assay for PERK inhibitors: Dose response cell-based high throughput screening assay to measure inhibition of PERK at 6 hours. [Related pubchem assays: 1522, 1416 ]; assay type: functional
T2 sequence (Q9NZJ5 whole entry): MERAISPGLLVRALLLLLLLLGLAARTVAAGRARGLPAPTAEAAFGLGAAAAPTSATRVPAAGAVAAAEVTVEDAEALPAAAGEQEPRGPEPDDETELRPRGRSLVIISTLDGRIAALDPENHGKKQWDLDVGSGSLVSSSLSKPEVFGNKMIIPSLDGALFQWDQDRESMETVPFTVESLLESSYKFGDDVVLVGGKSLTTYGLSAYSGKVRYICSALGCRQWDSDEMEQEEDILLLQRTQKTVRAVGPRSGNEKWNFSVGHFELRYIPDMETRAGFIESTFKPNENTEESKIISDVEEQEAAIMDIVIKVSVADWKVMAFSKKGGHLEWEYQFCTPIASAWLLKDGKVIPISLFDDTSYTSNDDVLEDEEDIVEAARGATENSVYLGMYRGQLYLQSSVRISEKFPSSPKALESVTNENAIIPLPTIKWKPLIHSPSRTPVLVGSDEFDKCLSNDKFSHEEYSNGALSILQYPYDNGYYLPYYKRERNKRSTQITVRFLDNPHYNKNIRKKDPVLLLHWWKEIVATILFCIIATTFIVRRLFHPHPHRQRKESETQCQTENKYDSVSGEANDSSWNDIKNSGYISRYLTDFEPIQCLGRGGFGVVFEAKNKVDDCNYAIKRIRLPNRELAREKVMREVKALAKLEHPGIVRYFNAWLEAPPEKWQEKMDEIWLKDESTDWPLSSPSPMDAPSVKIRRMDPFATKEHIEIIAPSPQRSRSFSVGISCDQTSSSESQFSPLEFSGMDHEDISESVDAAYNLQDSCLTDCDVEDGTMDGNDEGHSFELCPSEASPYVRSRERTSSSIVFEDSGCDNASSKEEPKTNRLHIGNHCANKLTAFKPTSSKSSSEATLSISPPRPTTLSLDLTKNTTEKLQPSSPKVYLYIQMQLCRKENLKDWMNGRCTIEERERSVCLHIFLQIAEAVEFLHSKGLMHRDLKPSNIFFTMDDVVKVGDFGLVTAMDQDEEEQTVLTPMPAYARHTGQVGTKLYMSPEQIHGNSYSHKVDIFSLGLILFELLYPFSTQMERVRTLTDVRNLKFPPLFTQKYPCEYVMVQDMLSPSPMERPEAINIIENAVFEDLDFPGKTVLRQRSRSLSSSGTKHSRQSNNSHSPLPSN

[5] = target: T2, Eukaryotic translation initiation factor 2-alpha kinase 3; test: Dose response cell-based high-throughput screening assay to measure PERK inhibition. [Related pubchem assays: 1416 ]; assay type: functional
Cytochrome P450 2C9 = Cytochrome P450 2C9 (Homo sapiens, UniProt P11712); settings: Potency
Chain of Cytochrome P450 2C9 (P11712 whole entry): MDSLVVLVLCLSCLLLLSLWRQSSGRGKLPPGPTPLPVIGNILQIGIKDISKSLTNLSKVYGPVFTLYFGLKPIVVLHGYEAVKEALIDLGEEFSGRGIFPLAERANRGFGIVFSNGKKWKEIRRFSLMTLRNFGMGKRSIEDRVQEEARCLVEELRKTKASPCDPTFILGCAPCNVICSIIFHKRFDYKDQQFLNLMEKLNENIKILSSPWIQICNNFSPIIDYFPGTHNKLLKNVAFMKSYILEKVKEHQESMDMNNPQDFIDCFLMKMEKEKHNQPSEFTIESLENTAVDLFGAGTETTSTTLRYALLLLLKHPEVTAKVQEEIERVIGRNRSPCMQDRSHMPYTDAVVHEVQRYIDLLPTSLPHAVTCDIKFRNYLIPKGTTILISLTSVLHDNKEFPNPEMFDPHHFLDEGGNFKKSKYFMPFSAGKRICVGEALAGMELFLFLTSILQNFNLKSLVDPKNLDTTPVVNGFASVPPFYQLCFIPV

[6] = target: Cyclin-dependent kinase 5/CDK5 activator 1 (Homo sapiens, UniProt Q00535); test: CDK5/p35 kinase inhibitors, dose response, biochemical, cherry-picked samples, set 2 (AID 504545)
Chain of Cyclin-dependent kinase 5/CDK5 activator 1 (Q00535 whole entry): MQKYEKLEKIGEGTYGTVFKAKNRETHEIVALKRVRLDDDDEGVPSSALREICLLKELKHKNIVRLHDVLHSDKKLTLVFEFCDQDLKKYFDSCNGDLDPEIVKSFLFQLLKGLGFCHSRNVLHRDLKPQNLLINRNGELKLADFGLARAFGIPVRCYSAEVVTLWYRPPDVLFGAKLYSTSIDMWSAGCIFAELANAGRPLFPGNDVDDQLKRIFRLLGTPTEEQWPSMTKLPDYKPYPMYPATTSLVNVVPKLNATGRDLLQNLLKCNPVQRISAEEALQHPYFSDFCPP
Chain of Cyclin-dependent kinase 5/CDK5 activator 1 (Q15078 whole entry, further chain): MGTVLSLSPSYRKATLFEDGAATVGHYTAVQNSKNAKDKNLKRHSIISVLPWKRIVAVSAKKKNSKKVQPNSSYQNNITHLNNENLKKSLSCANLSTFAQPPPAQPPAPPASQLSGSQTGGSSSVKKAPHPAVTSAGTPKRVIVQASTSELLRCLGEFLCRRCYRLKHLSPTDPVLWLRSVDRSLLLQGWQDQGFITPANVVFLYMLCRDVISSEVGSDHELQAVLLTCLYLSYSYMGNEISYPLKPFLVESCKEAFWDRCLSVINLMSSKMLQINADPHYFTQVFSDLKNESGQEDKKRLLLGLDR

[7] = target: Protein-tyrosine kinase 2-beta (Homo sapiens, UniProt Q14289);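 further: potency of inhibitors of PYK2 kinase phosphorylation of poly-GT substrate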
Chain of Protein-tyrosine kinase 2-beta (Q14289 whole entry): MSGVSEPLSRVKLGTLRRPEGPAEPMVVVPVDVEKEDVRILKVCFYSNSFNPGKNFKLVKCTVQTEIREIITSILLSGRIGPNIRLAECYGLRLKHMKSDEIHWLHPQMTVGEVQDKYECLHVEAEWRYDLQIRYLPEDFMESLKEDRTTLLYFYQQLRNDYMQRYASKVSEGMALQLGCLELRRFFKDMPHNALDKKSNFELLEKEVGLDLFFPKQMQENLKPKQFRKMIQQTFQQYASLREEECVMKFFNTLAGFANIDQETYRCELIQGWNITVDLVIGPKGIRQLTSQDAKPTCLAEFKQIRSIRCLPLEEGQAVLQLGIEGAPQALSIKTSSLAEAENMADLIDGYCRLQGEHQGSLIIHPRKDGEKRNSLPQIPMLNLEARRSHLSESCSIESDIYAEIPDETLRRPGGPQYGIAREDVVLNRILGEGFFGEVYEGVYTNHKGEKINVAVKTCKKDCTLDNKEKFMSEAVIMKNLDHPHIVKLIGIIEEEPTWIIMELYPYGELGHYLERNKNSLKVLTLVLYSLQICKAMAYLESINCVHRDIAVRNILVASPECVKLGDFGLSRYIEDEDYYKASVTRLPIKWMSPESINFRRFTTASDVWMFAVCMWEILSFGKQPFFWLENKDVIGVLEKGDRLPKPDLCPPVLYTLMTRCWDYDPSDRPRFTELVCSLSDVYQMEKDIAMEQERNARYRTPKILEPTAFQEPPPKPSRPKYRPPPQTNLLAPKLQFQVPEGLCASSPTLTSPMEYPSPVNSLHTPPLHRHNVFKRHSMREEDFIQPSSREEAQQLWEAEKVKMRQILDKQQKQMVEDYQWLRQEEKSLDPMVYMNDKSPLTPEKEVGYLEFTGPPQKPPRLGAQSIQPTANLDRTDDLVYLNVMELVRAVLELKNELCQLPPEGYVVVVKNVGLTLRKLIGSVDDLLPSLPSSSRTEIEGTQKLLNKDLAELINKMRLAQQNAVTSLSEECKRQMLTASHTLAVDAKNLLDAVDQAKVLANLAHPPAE

[8] = target: T3, Heat shock factor protein 1 (Mus musculus, UniProt P38532); test: HSF1 potentiators in luciferase reporter cells, confirmation, cell-based, NIH3T3, luminescence, dose retest (AID 435004); assay type: functional;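 further: stress induced by proteasome inhibitor MG132 added 30 min after compound; luciferase reporter driven by HSF1 response element in NIH3T3 cells; actives raise luminescence as potentiators of the MG132 stress response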
T3 sequence (P38532 whole entry): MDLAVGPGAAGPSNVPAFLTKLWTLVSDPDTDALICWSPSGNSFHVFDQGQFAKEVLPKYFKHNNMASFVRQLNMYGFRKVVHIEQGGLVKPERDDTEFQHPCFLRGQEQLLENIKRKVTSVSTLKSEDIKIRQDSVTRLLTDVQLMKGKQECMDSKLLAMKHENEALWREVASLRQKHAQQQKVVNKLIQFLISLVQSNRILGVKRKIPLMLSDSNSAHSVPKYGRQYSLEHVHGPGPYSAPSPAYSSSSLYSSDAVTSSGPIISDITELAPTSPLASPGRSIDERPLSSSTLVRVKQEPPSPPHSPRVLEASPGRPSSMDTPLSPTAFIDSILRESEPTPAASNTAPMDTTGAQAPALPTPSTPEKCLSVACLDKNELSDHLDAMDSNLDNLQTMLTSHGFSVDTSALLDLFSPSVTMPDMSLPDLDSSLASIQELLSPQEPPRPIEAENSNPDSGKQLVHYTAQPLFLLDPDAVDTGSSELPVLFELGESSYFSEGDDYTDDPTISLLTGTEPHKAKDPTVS

[9] = LGR2 antagonists, dose response, cell-based, HEK293, CRE-luciferase reporter, cherry pick, set 2 (AID 743343); assay type: functional;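 further: transfected cells were stimulated with diluted bursicon conditioned medium after compound addition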
[10] = microbe, parasite or virus in culture; assay type: functional; settings: Mycobacterium tuberculosis
[11] = MC4R antagonists, dose response, counter-screen for LGR2 antagonist project, cell-based, plate reader, cherry pick (AID 743444); assay type: functional;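 further: transfected HEK 293 cells stimulated with alpha-MSH peptide; potency of inhibitors of the alpha-MSH evoked signal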
[12] = HepG2 cell cytotoxicity, dose response, cytotoxicity control, plate reader, cherry-pick, antagonist series (AID 743416); assay type: functional, cell-based
Trypsin = Trypsin (Sus scrofa, UniProt P00761); test: porcine trypsin inhibitors, dose response, selectivity assay for Rce1 protease inhibitor project, biochemical, quenched peptide fluorescence, cherry-pick (AID 488789)
Chain of Trypsin (P00761 whole entry): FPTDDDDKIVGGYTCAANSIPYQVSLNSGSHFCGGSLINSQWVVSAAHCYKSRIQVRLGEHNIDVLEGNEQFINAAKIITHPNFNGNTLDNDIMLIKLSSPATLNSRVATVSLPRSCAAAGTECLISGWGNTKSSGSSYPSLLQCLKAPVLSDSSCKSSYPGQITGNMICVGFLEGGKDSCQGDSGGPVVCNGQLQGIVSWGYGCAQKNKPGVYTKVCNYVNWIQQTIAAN

Prothrombin = Prothrombin (Homo sapiens, UniProt P00734); test: Thrombin 1536 HTS Dose Response Confirmation. [Related pubchem assays: 1046 (Thrombin 1536 HTS; hits were confirmed in this assay)]; assay type: functional
[13] = HeLa cell cytotoxicity, dose response, cytotoxicity control for MgcRacGAP inhibitor project (AID 624300); assay type: functional
HeLa = test: HeLa cell cytotoxicity, dose response, cytotoxicity control, 24 h, cherry-picked samples (AID 504726); assay type: functional, cell-based; settings: Homo sapiens;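 further: potency for cytotoxicity as loss of luminescence signal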
ORF 73 = ORF 73 (Human herpesvirus 8, UniProt O40947); test: inhibitors of C-LANA binding to LBS DNA, dose response, biochemical, fluorescence polarization, cherry-picked samples (AID 504725); set-up: species or system Human gammaherpesvirus 8;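 further: fluorescence polarization of a labeled DNA duplex reporting LANA DNA binding; potency is for inhibitors that block LANA binding to the DNA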
Chain of ORF 73 (O40947 whole entry): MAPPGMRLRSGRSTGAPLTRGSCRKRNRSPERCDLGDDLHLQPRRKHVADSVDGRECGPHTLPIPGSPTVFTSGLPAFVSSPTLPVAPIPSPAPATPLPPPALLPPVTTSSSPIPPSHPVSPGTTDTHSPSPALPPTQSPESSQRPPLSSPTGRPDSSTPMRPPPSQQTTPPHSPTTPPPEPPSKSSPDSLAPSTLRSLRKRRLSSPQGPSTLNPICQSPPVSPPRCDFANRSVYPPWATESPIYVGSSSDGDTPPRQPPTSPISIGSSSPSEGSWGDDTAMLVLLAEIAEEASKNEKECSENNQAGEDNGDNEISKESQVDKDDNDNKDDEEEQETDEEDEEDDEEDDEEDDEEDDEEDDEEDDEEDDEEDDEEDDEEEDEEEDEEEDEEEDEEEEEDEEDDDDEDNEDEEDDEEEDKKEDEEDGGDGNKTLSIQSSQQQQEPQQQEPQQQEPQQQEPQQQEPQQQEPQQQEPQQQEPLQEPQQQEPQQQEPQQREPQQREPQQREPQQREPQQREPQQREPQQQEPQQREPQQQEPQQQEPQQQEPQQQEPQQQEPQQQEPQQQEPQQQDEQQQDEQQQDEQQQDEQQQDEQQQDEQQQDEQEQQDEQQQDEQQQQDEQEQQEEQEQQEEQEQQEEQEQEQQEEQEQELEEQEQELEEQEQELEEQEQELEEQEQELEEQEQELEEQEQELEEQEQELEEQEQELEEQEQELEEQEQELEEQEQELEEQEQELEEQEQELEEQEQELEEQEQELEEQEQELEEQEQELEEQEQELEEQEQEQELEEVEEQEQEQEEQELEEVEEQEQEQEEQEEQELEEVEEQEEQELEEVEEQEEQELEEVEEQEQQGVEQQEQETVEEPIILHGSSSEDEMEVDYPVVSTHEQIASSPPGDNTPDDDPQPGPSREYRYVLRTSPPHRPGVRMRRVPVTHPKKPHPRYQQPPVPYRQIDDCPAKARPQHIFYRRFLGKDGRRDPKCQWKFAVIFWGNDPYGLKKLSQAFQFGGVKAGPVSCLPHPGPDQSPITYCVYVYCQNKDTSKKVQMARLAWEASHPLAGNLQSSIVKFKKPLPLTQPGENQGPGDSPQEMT

HEK293 = test: HEK cell cytotoxicity by LDH release, dose response, cytotoxicity control for IDE activator project, fluorescence, HEK cells (AID 588440); assay type: functional, cell-based, Homo sapiens; settings: hek293;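 further: cytotoxicity by LDH release measuring loss of membrane integrity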
Insulin-degrading enzyme [14] = target: T4, Insulin-degrading enzyme (Homo sapiens, UniProt P14735); test: activators of recombinant IDE enzyme, dose response, counter-screen for IDE activator project, biochemical, fluorescence polarization (AID 588681)
T4 sequence (P14735 whole entry): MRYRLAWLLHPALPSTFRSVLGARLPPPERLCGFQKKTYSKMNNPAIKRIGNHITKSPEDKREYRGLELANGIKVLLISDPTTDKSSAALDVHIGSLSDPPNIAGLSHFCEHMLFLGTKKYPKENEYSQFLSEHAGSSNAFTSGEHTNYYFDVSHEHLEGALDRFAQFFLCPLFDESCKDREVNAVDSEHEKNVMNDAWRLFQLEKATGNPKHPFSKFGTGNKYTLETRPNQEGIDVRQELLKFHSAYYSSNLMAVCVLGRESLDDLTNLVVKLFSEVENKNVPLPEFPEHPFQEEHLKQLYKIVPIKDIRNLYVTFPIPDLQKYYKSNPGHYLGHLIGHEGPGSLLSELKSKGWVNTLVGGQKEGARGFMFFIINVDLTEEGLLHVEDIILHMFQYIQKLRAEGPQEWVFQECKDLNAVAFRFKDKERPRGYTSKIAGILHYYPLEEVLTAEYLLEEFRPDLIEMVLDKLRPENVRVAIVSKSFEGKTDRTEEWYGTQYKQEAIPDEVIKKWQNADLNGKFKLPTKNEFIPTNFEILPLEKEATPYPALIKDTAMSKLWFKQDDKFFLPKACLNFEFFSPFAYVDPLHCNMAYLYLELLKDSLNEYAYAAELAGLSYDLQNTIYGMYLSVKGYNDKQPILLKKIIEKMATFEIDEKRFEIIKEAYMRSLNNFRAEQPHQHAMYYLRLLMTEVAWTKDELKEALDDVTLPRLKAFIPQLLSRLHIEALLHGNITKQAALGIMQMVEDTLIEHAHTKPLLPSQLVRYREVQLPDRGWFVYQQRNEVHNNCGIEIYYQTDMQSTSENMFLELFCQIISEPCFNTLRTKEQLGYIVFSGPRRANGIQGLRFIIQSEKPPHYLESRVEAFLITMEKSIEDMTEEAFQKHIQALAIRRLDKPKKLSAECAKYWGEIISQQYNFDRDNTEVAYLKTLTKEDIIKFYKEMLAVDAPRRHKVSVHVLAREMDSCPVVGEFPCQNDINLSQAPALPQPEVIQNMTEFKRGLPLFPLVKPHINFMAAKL

[15] = target: T5, Rac GTPase-activating protein 1 (Homo sapiens, UniProt Q9H0H5); test: MgcRacGAP GTPase-activating activity inhibitors, confirmation, biochemical, ADP Hunter fluorescence, primary and confirmatory (AID 624330); assay type: functional
T5 sequence (Q9H0H5 whole entry): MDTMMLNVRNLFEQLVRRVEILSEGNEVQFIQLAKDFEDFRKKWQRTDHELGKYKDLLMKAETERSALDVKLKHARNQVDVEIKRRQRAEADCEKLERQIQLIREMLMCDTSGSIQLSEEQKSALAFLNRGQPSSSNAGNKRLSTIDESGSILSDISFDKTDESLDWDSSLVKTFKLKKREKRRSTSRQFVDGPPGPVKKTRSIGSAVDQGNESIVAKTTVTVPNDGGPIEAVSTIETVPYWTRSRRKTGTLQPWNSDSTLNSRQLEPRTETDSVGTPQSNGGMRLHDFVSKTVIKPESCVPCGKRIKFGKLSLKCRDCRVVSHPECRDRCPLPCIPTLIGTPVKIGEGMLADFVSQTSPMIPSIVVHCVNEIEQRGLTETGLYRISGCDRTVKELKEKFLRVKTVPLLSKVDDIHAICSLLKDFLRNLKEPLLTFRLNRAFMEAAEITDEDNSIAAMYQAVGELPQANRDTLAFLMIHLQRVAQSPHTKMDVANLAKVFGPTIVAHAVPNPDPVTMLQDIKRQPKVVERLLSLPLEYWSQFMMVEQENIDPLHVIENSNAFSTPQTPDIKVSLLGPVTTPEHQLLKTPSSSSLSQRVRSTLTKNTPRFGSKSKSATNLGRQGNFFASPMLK

Insulin-degrading enzyme [16] = target: T4, Insulin-degrading enzyme; test: activators of endogenous IDE in HEK cells, dose response, cell-based, fluorescence polarization (AID 588439); assay type: functional

Chain of Melanin-concentrating hormone receptor 1 (Q99705 whole entry): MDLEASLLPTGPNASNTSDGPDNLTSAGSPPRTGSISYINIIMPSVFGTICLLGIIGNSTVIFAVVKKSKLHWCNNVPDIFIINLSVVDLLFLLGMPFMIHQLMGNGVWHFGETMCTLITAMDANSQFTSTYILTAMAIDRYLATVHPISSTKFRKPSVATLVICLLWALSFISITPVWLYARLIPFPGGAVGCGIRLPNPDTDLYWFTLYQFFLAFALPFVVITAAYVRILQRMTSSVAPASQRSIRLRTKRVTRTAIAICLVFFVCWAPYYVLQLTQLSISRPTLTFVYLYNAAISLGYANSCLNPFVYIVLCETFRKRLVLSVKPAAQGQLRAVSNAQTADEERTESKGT

CCOC(=O)C(C)On1c(-c2ccccc2)nc2ccc([N+](=O)[O-])cc21 (stereo not drawn)
IC50 [1]: 15.9 µM (not active)

COc1ccc(/C=C2\SC(=O)N(CC(=O)NNC(=O)c3ccccc3O)C2=O)cc1
EC50 [2]: 64.3 µM (not active)
IC50 (Albumin): > 94.1 µM (inactive)

COc1cc(/C=N/Nc2nc(-c3ccc(S(=O)(=O)N(C)C)cc3)cs2)ccc1O
EC50 [3]: 17.6 µM (active)

CC(NS(=O)(=O)c1ccccc1)c1nnc(S)n1-c1ccccc1 (stereo not drawn)
EC50 [4]: > 55.7 µM (not active)
EC50 [5]: > 55.7 µM (not active)

CCOC(=O)OCC1OC(c2ccccc2)C=CC1OC(=O)OCC (stereo not drawn)
AC50 (Cytochrome P450 2C9): 3.16 µM (inconclusive)

O=C1Nc2ccccc2/C1=C/c1c[nH]cn1
AC50 [6]: 0.268 µM (active)
IC50 [7]: 8.78 µM (active)
EC50 [8]: 17.5 µM (active)

Cc1cc(C)c(NC(=O)NC(=O)C(Cl)(Cl)Cl)c(C)c1
EC50 [4]: > 55.7 µM (not active)
EC50 [5]: > 55.7 µM (not active)

COC(=O)c1ccc(NC(=O)CSc2nc3ccc(N4C(=O)C5C6C=CC(C6)C5C4=O)cc3s2)cc1 (stereo not drawn)
AC50 [9]: 8.11 µM (active)
EC50 [3]: > 40 µM (inactive)
CC50 [10]: > 40 µM (active)
AC50 [11]: 7.79 µM (active)
AC50 [12]: > 52 µM (inactive)

COc1ccc(-c2ccc(-c3nnc(-c4cc(OC)ccc4OC)o3)cc2)cc1
AC50 (Trypsin): 10.4 µM (active)

COc1ccc(CCNC(=O)C2CCC(CNS(=O)(=O)c3ccccc3)CC2)cc1OC (stereo not drawn)
EC50 [2]: > 100 µM (not active)
IC50 (Prothrombin): > 50 µM (not active)

C=C[C@@](C)(O)CC[C@H]1[C@]2(C)CCCC(C)(C)[C@H]2CC[C@]1(C)O
AC50 (Cytochrome P450 2C9): 31.6 µM (inconclusive)

C[n+]1c2cc(N)ccc2cc2ccc(N)cc21 [EUFLAVINE]
CC50 [13]: 11.6 µM (active)
AC50 (HeLa): 14.7 µM (active)
AC50 (ORF 73): 0.415 µM (active)
IC50 (HEK293): > 89.2 µM (inactive)
EC50 (Insulin-degrading enzyme [14]): > 54.7 µM (inactive)
IC50 [15]: 78.3 µM (active)
EC50 (Insulin-degrading enzyme [16]): > 54.7 µM (inactive)
